Laboratory results taken from publication PMC11375437, “Selective labelling of GBA2 in cells with fluorescent β-D-arabinofuranosyl cyclitol aziridines” (Chemical Science, 2024).
“And” between values parts separate entries of the source, which are not always exact repeats. Equal values may be shown once. Read-outs that look alike come from different tables or passages of the source.

Target: T1, rhGBA1 (imiglucerase) (Homo sapiens, UniProt P04062, R534H)
T1 construct: purchased Sanofi Genzyme (gift) Cerezyme®
T1 sequence (P04062 40-536 R534H): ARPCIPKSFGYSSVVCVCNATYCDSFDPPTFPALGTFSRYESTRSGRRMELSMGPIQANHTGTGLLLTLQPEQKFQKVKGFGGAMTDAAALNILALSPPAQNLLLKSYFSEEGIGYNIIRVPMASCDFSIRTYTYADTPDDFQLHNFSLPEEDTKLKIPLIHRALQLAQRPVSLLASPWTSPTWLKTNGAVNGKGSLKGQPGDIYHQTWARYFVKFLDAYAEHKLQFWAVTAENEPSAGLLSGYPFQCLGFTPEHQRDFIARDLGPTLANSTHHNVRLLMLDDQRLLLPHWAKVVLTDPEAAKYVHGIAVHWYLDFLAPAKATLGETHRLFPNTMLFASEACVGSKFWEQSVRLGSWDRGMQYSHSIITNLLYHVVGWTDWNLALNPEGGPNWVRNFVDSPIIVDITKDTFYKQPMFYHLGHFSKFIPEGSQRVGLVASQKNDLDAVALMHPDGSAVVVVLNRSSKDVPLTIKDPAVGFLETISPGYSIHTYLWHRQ
Assay: 4MU fluorogenic substrate assay for apparent IC50, rhGBA1
Assay type: biochemical
Conditions: 30 min pre-incubation, 4MU-β-D-Glc
Source text: To identify an ABP that selectively labels human GBA2 over GBA1 and GBA3, a library of cyclophellitol-based ABPs with varying configurations (ESI Fig. S1 ^†) was screened for their selectivity towards human retaining β-glucosidases. For this purpose, we initially assessed the inhibition properties of the compounds using recombinant human GBA1 (rhGBA1, imiglucerase), lysates of cells overexpressing GBA2 or GBA3 (both in combination with knockout of the other retaining β-glucosidases). In a preliminary screen, enzymes were pre-incubated for 30 min with the tested compounds, followed by the addition of the fluorogenic substrate, 4MU-β-D-Glc, and subsequent quantification of released fluorescent 4MU after 30 minutes. This screening brought our attention to a new set of β-D-Araf cyclitol aziridines as potential GBA2 inhibitors. […] On the other hand, the biotin-tagged β-D-Araf compound 6 is a poor inhibitor of all three glucosidases (apparent IC50 > 8 μM). Arabinofuranosyl cyclitol 12–20 with various configurations (α-L-Araf and β-L-Araf) were also evaluated (ESI Fig. S1 ^†).
Recombinant human GBA1 (rhGBA1, Imiglucerase) was kindly provided by Sanofi Genzyme (Cambridge, MA, USA). 4-Methylumbelliferyl-β-D-glucopyranoside substrates were purchase from Glycosynth (Warrington Cheshire, UK). Protein concentration was measured using the Pierce BCA assay kit (Thermo Fisher Scientific, Waltham, MA, USA). Harvested cells (cell pellets), cell lysates and tissue homogenates not used directly were stored at -80 °C. […]
2.5 4MU fluorogenic substrate assay for apparent IC50 determination
4MU fluorogenic substrate assays (using recombination human rhGBA1 or lysates of HEK293T cells) were conducted in 96-well plates at 37 °C. Samples were diluted with McIlvaine buffer (150 mM citric acid-Na2HPO4) to a final volume of 25 μL, at the appropriate pH for each enzyme. Assays were performed by incubating the samples with 100 μL 4-methylumbelliferyl-β-D-glucopyranoside substrate diluted in McIlvaine buffer for a period of 30 min. Enzyme activities and apparent IC50 values were determined by subtraction of the background (measured for incubations without enzyme) as previously described.4 The substrate mixtures used for each enzyme were as follows:
GBA1: 3.75 mM 4-MU-β-D-glucopyranoside in McIlvaine buffer (150 mM, pH 5.2, supplemented with 0.2% (w/v) sodium taurocholate, 0.1% (v/v) Triton X-100, 0.1% (w/v) bovine serum albumin (BSA)); GBA2: 3.75 mM 4 MU-β-D-glucopyranoside in McIlvaine buffer (150 mM, pH 5.8); GBA3: 3.75 mM 4-MU-β-D-glucopyranoside in McIlvaine buffer (150 mM, pH 6.0). To determine apparent IC50: For GBA1, 3.16 ng (53 fmol) of rhGBA1 (recombinant human GBA1, Imiglucerase) was prepared in 12.5 μL McIlvaine buffer (150 mM, pH 5.2, supplemented with 0.1% (v/v) Triton X-100, 0.2% (w/v) sodium taurocholate, and 0.1% (w/v) bovine serum albumin (BSA)). The enzyme was incubated with 12.5 μL […]
of inhibitors diluted in McIlvaine buffer (150 mM, pH 5.2) at 37 °C for 30 min or 3 h. For GBA2, lysates of GBA1/GBA2 KO HEK293T cells with GBA2 overexpression were prepared in 12.5 μL McIlvaine buffer (150 mM, pH 5.8), and incubated with 12.5 μL of inhibitors diluted in McIlvaine buffer (150 mM, pH 5.8) at 37 °C for 30 min or 3 h. For GBA3, lysates of GBA1/GBA2 KO HEK293T cells with GBA3 overexpression were prepared in 12.5 μL McIlvaine buffer (150 mM, pH 6.0), and incubated with 12.5 μL of inhibitors diluted in McIlvaine buffer (150 mM, pH 6.0) at 37 °C for 30 min or 3 h. Subsequently, the samples were incubated with 100 μL 4-methylumbelliferyl-β-D-glucopyranoside substrates dissolved in McIlvaine buffer described above for a period of 30 min. After stopping the enzyme reaction with 200 μL 1 M NaOH-glycine (pH 10.3), 4-methylumbelliferone fluorescence was measured with a fluorimeter LS55 (Perkin Elmer, Waltham, MA, USA) with λEX 366 nm and λEM 445 nm. The IC50 value was calculated using Graphpad Prism 9.0 with the Nonlinear regression (curve fit) - […]

[1] = imiglucerase (Cerezyme), pH 5.2, n = 3 for β-D-Araf, n = 1 for α-L-Araf and β-L-Araf, read-out: Apparent IC50 rhGBA1

| Structure (SMILES) | IC50 [1] | IC50 (read-out: Apparent IC50 GBA1) [µM] |
| --- | --- | --- |
| [N-]=[N+]=NCCCCCCCCN1[C@@H]2[C@H](CO)[C@@H](O)[C@H](O)[C@@H]21 (stereo partly drawn) [Compound 2, β-D-arabinofuranosyl cyclitol aziridine-azidooctyl] | 2.73 µM | – |
| CN1/C(=C/C=C/C=C/C2=[N+](CCCCCC(=O)NCc3cn(CCCCCCCCN4[C@@H]5[C@H](CO)[C@@H](O)[C@H](O)[C@@H]54)nn3)c3ccccc3C2(C)C)C(C)(C)c2ccccc21 (some centres unmarked) [ABP 5] | 0.25 to 0.3 µM and 0.295 µM | – |
| OC[C@@H]1[C@@H](O)[C@H](O)[C@@H]2N[C@H]12 [Compound 1, β-D-Arabinofuranosyl cyclitol aziridine] | > 50 µM | > 50 |
| CC1=CC(C)=[N+]2C1=C(CCCCc1cn(CCCCCCCCN3[C@@H]4[C@H](CO)[C@@H](O)[C@H](O)[C@@H]43)nn1)c1c(C)cc(C)n1[B-]2(F)F (some centres unmarked) [ABP 3] | 4.29 ± 0.157 µM | – |
| COc1ccc(C2=[N+]3C(=C(CCCCc4cn(CCCCCCCCN5[C@@H]6[C@H](CO)[C@@H](O)[C@H](O)[C@@H]65)nn4)c4ccc(-c5ccc(OC)cc5)n4[B-]3(F)F)C=C2)cc1 (some centres unmarked) [ABP 4] | 1.78 ± 0.071 µM | – |
| O=C(CCCC[C@@H]1SC[C@@H]2NC(=O)N[C@@H]21)NCc1cn(CCCCCCCCN2[C@@H]3[C@H](CO)[C@@H](O)[C@H](O)[C@@H]32)nn1 (some centres unmarked) [ABP 6] | 10.7 ± 0.786 µM | > 8 |
